Several values for one entry are separate records, joined by “and”; a condition that tells them apart may be missing. Identical values can stand only once. Counter-ions that a name gives are not always drawn. Like-named read-outs stand apart in the source and are kept apart here.
Legend:
[1] = target: T1, human acetylcholine esterase (Homo sapiens, UniProt P22303); assay: Human acetylcholine esterase inhibition (human recombinant, HEK-293 cells; Ellman photometry); format: biochemical; details: for inhibitory action toward human acetylcholine esterase (in words): in contrast to galantamine
T1 construct: host or cells: HEK-293 cells
T1 sequence (P22303 32-614): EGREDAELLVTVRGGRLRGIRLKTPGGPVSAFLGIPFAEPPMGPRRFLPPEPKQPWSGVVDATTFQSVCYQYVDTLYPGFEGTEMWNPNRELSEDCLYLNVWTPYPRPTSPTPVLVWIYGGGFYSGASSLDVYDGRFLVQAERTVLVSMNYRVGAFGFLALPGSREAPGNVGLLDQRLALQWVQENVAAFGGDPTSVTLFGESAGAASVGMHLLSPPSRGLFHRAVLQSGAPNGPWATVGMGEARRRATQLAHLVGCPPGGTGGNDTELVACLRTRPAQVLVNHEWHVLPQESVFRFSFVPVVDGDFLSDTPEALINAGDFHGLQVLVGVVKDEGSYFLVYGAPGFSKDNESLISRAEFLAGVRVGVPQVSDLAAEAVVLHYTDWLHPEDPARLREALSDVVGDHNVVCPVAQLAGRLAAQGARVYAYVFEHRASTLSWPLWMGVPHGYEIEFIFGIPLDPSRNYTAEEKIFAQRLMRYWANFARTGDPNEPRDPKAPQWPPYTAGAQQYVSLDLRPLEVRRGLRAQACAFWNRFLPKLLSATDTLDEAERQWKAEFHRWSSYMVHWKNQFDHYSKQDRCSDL

Sprague Dawley rat = assay: PICA behavior (kaolin consumption) in the Sprague Dawley rat as surrogate for emesis; format: in vivo
Experimental: This is a well established model for this purpose in the rat (Takeda N et al (1993) 45 817-21).
Once determined, a comparison was made of the effects of these doses on kaolin consumption over a 0-96 hour period in 24 h increments.
In detail groups of 10 male Sprague Dawley rats were habituated to kaolin for 3 days, then singly housed in grid-bottomed cages and habituated for a further 2 days prior to dosing. On the day of drug administration, the animals were food-deprived for 1 h prior to dosing. […] Access to a weighed quantity of food and kaolin was then restored. Food and kaolin was weighed 24, 48, 72 and 96 h after dosing.

[2] = test system: human stomach circular smooth muscle; assay: Ex vivo human stomach circular smooth muscle, electrical field stimulation; format: cell-based; details: human stomach strips under EFS; 100 nM to 100 μM
ferret = assay: Emetic activity (retching and vomiting) in the ferret
[3] = test system: rabbit stomach circular smooth muscle; assay: Ex vivo rabbit stomach circular smooth muscle, electrical field stimulation; format: cell-based; details: rabbit stomach strips under EFS; 100 nM to 100 μM
[4] = USP SGF pH 1.2, 37 deg. C., 0 hours
[5] = USP SGF pH 1.2, 37 deg. C., 1 hour
[6] = USP SIF pH 6.8, 37 deg. C., 0 hours
[7] = USP SIF pH 6.8, 37 deg. C., 2 hours
[8] = human recombinant (HEK-293 cells), AMTCh 50 μM, 30 min./37° C., read-out: IC50 for inhibition of human acetyl choline esterase
[9] = 40 mg/kg as base p.o., 2 hr. observation, individual ferrets
[10] = 20 mg/kg p.o., 2 hr. observation, individual ferrets, listed as Galantamine valine ester tartrate
[11] = 20 mg (free base)/kg oral or similar molar dose

## COc1ccc2c3c1O[C@H]1C[C@@H](OC(=O)CCCC(=O)Nc4ccc(C(=O)O)cc4)C=C[C@@]31CCN(C)C2 [Galantamine [glutaryl-PABA] ester, galantamine (glutaryl-PABA) ester trifluoroacetate]
[1]
  IC50: > 100 µM
  inhibitory action toward human acetylcholine esterase (in words): significantly less inhibitory actions

## COc1ccc2c3c1O[C@H]1C[C@@H](OC(=O)Nc4cccc(C(=O)O)c4)C=C[C@@]31CCN(C)C2 [Galantamine meta amino benzoic acid carbamate]
[4]
  % Prodrug Remaining: 100%
[5]
  % Prodrug Remaining: 100%
[6]
  % Prodrug Remaining: 100%
[7]
  % Prodrug Remaining: 100%
[1]; [8]
  IC50: 26 µM

## COc1ccc2c3c1O[C@H]1C[C@@H](OC(=O)Nc4ccc(C(=O)O)cc4)C=C[C@@]31CCN(C)C2 [Galantamine para amino benzoic acid carbamate]
[4]
  % Prodrug Remaining: 100-%
[5]
  % Prodrug Remaining: 100%
[6]
  % Prodrug Remaining: 100%
[7]
  % Prodrug Remaining: 100%
[1]; [8]
  IC50: 32 µM

## COc1ccc2c3c1O[C@H]1C[C@@H](OC(=O)NCc4ccc(C(=O)O)cc4)C=C[C@@]31CCN(C)C2 [Galantamine para-amino methyl benzoic acid carbamate]
[4]
  % Prodrug Remaining: 100%
[5]
  % Prodrug Remaining: 100%
[6]
  % Prodrug Remaining: 100%
[7]
  % Prodrug Remaining: 100%
[1]; [8]
  IC50: 46 µM

## COc1ccc2c3c1O[C@H]1C[C@@H](OC(=O)Nc4ccc(C(=O)O)cn4)C=C[C@@]31CCN(C)C2 [Galantamine para-amino nicotinic acid carbamate]
[4]
  % Prodrug Remaining: 100%
[5]
  % Prodrug Remaining: 100%
[6]
  % Prodrug Remaining: 100%
[7]
  % Prodrug Remaining: 100%
[1]; [8]
  IC50: 55 µM

## COc1ccc2c3c1O[C@H]1C[C@@H](OC(=O)N[C@@H](Cc4ccccc4)C(=O)O)C=C[C@@]31CCN(C)C2 [Galantamine phenylalanine carbamate, galantamine-(S)-phenylalanine carbamate trifluoroacetate]
[4]
  % Prodrug Remaining: 94.7%
[5]
  % Prodrug Remaining: 94.7%
[6]
  % Prodrug Remaining: 95.9%
[7]
  % Prodrug Remaining: 95.6%

## COc1ccc2c3c1O[C@H]1C[C@@H](OC(=O)CCC(=O)N[C@H](C(=O)O)C(C)C)C=C[C@@]31CCN(C)C2.O=C(O)C(F)(F)F [Galantamine succinyl valine ester, galantamine-[succinyl-(S)-valine]ester trifluoroacetate]
Sprague Dawley rat; 11.75 mg galantamine free base content/kg po, 24 h
  Cumulative mean ± SD kaolin consumption: 0.14 ± 0.20 g
Sprague Dawley rat; 11.75 mg galantamine free base content/kg po, 48 h
  Cumulative mean ± SD kaolin consumption: 0.29 ± 0.24 g
Sprague Dawley rat; 11.75 mg galantamine free base content/kg po, 72 h
  Cumulative mean ± SD kaolin consumption: 0.48 ± 0.27 g
Sprague Dawley rat; 11.75 mg galantamine free base content/kg po, 96 h
  Cumulative mean ± SD kaolin consumption: 0.57 ± 0.40 g
Sprague Dawley rat; 23.5 mg galantamine free base content/kg po, 24 h
  Cumulative mean ± SD kaolin consumption: 0.31 ± 0.53 g
Sprague Dawley rat; 23.5 mg galantamine free base content/kg po, 48 h
  Cumulative mean ± SD kaolin consumption: 0.61 ± 0.69 g
Sprague Dawley rat; 23.5 mg galantamine free base content/kg po, 72 h
  Cumulative mean ± SD kaolin consumption: 0.95 ± 0.96 g
Sprague Dawley rat; 23.5 mg galantamine free base content/kg po, 96 h
  Cumulative mean ± SD kaolin consumption: 1.25 ± 1.31 g
Sprague Dawley rat; 47 mg galantamine free base content/kg po, 24 h
  Cumulative mean ± SD kaolin consumption: 0.15 ± 0.18 g
Sprague Dawley rat; 47 mg galantamine free base content/kg po, 48 h
  Cumulative mean ± SD kaolin consumption: 0.40 ± 0.18 g
Sprague Dawley rat; 47 mg galantamine free base content/kg po, 72 h
  Cumulative mean ± SD kaolin consumption: 0.63 ± 0.28 g
Sprague Dawley rat; 47 mg galantamine free base content/kg po, 96 h
  Cumulative mean ± SD kaolin consumption: 0.91 ± 0.45 g
Sprague Dawley rat; 47 mg galantamine free base content/kg po, 96 h, listed as GSVE
  Cumulative mean ± SD kaolin consumption: 0.91 ± 0.45 g
Sprague Dawley rat; oral, up to 47 mg (galantamine free base content)/kg
  kaolin consumption compared with vehicle alone (in words): little evidence for any increase in kaolin consumption
[2]
  stimulation of smooth muscle contractions (change in force production): complete absence of any such effect
ferret; [9]
  Time (min) to onset of: Retching: >120 min
  Time (min) to onset of: Vomiting: >120 min
  Total number of individual incidences of: Retching: 0
  Total number of individual incidences of: Vomiting: 0
ferret; 40 mg/kg as base p.o., Mean
  Time (min) to onset of: Retching: >120 min
  Time (min) to onset of: Vomiting: >120 min
  Total number of individual incidences of: Retching: 0
  Total number of individual incidences of: Vomiting: 0
ferret; oral 40 mg galantamine (free base equivs)/kg
  retching or vomiting (in words): no retching or vomiting at all was observed
[1]
  IC50: > 100 µM
  inhibitory action toward human acetylcholine esterase (in words): significantly less inhibitory actions
[3]
  stimulation of smooth muscle contractions (change in force production): complete absence of any such effect

## COc1ccc2c3c1O[C@H]1C[C@@H](OC(=O)[C@@H](N)C(C)C)C=C[C@@]31CCN(C)C2 [Galantamine-(S)-valine ester, galantamine-(S)-valine ester tartrate]
ferret; 20 mg/kg p.o. (galantamine free base content), 2 hr. observation, individual ferrets, listed as Galantamine valine ester tartrate
  Total number of individual incidences of: Retching: 22 and 0 (6×) and 2 (2×) and 3 and 14
ferret; 20 mg/kg p.o., 2 hr. observation, Mean
  Total number of individual incidences of: Retching: 3.9
ferret; [10]
  Time (min) to onset of: Retching: 35 min and >120 min (6×) and 106 min and 11 min and 9 min and 6 min
  Time (min) to onset of: Vomiting: 44 min and >120 min (9×) and 9 min
  Total number of individual incidences of: Vomiting: 1 and 0 (9×) and 3

## [Cl-].[Li+] [LiCl]
Sprague Dawley rat; positive control, 130 mg base/kg po, 24 h
  Cumulative mean ± SD kaolin consumption: 3.33 ± 1.98 g
Sprague Dawley rat; positive control, 130 mg base/kg po, 48 h
  Cumulative mean ± SD kaolin consumption: 3.71 ± 2.22 g
Sprague Dawley rat; positive control, 130 mg base/kg po, 72 h
  Cumulative mean ± SD kaolin consumption: 4.42 ± 2.82 g
Sprague Dawley rat; positive control, 130 mg base/kg po, 96 h
  Cumulative mean ± SD kaolin consumption: 4.82 ± 3.11 g

## galantamine (glutaryl-PABA) ester trifluoroacetate [Galantamine [glutaryl-PABA] ester]
FaSSIF (pH 6.5), 37 deg. C., 0 hours
  % Prodrug Remaining: 96%
FaSSIF (pH 6.5), 37 deg. C., 2 hour
  % Prodrug Remaining: 86%
FeSSIF (pH 6.5), 37 deg. C., 0 hours
  % Prodrug Remaining: 85%
FeSSIF (pH 6.5), 37 deg. C., 2 hours
  % Prodrug Remaining: 90%

## galantamine-(S)-valine ester tartrate
ferret; [11]
  animals dosed that retched: 45%
  animals dosed that vomited: 18%
